According to ChEMBL document CHEMBL5291721, “A preclinical secondary pharmacology resource illuminates target-adverse drug reaction associations of marketed drugs” (Nat Commun, 2023):

How the values were obtained:
[1] = target: T1, Muscarinic acetylcholine receptor M1 (Homo sapiens, UniProt P11229); assay type: functional, cell-based
T1 sequence (P11229 whole entry): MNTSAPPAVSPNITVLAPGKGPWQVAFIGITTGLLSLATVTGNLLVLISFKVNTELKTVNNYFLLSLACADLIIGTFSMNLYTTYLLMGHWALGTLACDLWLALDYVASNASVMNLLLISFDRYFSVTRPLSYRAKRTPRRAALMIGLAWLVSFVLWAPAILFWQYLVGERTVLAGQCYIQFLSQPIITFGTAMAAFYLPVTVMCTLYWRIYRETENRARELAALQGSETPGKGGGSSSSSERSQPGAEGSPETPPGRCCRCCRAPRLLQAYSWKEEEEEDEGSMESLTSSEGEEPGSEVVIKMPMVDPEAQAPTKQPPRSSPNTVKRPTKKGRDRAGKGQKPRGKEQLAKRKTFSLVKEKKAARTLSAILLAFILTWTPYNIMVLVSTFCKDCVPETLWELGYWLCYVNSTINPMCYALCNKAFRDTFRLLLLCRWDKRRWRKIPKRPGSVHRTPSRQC

[2] = target: T1, Muscarinic acetylcholine receptor M1; assay type: functional, cell-based; remark: listed apart in the source
[3] = target: Delta-type opioid receptor (Homo sapiens, UniProt P41143)
Chain of Delta-type opioid receptor (P41143 whole entry): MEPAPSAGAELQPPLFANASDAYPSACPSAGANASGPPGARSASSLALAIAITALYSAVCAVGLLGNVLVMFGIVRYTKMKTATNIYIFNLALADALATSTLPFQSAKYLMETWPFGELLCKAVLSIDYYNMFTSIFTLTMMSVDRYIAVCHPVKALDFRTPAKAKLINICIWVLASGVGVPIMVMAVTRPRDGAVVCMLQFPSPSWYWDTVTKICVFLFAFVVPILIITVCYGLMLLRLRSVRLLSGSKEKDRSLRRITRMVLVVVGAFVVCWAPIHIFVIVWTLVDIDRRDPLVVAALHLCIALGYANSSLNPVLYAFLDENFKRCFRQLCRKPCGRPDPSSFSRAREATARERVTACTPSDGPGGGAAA

[4] = target: T2, Alpha-2C adrenergic receptor (Homo sapiens, UniProt P18825); assay type: functional
T2 sequence (P18825 whole entry): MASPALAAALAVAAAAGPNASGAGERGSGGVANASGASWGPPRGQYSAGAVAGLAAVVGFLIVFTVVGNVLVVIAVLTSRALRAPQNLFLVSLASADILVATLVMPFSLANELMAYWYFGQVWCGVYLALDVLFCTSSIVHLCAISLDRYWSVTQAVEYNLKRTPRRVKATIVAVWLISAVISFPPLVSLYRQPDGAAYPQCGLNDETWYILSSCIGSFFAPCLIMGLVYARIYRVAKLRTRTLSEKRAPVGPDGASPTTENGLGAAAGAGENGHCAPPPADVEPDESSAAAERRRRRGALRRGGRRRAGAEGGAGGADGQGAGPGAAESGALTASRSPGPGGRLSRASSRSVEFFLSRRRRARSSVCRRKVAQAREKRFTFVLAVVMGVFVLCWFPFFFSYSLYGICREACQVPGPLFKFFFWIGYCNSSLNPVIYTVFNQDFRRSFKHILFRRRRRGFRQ

[5] = target: Kappa-type opioid receptor (Homo sapiens, UniProt P41145)
Chain of Kappa-type opioid receptor (P41145 whole entry): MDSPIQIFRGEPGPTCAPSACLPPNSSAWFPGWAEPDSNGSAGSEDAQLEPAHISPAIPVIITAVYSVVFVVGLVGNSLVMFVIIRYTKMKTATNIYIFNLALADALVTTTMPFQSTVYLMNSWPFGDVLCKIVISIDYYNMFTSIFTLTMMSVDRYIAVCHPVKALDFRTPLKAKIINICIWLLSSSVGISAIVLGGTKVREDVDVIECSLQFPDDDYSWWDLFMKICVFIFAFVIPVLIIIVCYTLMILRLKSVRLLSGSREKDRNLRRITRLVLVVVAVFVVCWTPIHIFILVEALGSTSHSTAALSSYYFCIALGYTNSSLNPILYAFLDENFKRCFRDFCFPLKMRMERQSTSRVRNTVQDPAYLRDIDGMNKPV

[6] = target: Gamma-aminobutyric acid receptor subunit alpha-1 (Rattus norvegicus, UniProt P62813)
Chain of Gamma-aminobutyric acid receptor subunit alpha-1 (P62813 whole entry): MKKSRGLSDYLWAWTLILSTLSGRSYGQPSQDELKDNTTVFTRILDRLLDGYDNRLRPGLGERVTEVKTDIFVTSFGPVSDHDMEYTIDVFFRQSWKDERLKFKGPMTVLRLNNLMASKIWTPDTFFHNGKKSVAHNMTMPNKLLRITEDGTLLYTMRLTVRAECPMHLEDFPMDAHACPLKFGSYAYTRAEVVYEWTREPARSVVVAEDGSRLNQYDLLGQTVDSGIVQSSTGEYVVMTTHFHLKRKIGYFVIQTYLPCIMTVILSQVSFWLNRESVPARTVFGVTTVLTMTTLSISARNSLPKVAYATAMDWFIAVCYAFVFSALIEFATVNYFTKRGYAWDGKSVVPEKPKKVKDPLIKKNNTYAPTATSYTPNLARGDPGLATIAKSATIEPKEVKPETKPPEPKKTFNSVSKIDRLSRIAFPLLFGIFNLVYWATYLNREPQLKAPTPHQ

[7] = target: T3, Alpha-1A adrenergic receptor (Homo sapiens, UniProt P35348); assay type: functional, cell-based
T3 sequence (P35348 whole entry): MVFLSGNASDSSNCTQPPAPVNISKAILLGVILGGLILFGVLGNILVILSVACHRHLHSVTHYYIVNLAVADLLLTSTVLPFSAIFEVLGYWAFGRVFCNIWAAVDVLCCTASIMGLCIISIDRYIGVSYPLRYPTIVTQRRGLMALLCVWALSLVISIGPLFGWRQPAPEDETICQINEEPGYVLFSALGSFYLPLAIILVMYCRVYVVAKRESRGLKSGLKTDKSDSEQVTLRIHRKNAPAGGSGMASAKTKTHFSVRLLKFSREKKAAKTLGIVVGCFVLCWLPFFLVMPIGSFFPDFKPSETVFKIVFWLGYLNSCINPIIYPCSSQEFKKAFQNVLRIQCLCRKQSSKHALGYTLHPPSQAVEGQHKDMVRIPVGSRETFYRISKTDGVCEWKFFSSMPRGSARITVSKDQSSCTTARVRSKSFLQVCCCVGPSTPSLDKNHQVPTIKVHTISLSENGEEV

[8] = target: T3, Alpha-1A adrenergic receptor; assay type: functional, cell-based; remark: listed apart in the source
Melanocortin receptor 3 = Melanocortin receptor 3 (Homo sapiens, UniProt P41968)
Chain of Melanocortin receptor 3 (P41968 whole entry): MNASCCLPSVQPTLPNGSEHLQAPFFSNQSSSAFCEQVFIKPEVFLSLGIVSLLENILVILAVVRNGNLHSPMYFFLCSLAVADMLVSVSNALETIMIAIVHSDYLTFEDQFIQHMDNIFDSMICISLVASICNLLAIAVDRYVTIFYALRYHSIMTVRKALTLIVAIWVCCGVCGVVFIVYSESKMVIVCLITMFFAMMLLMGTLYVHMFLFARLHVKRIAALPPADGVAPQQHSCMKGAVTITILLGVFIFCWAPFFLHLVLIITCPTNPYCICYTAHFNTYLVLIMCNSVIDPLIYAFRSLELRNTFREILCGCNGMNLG

[9] = target: Sodium-dependent noradrenaline transporter (Homo sapiens, UniProt P23975)
Chain of Sodium-dependent noradrenaline transporter (P23975 whole entry): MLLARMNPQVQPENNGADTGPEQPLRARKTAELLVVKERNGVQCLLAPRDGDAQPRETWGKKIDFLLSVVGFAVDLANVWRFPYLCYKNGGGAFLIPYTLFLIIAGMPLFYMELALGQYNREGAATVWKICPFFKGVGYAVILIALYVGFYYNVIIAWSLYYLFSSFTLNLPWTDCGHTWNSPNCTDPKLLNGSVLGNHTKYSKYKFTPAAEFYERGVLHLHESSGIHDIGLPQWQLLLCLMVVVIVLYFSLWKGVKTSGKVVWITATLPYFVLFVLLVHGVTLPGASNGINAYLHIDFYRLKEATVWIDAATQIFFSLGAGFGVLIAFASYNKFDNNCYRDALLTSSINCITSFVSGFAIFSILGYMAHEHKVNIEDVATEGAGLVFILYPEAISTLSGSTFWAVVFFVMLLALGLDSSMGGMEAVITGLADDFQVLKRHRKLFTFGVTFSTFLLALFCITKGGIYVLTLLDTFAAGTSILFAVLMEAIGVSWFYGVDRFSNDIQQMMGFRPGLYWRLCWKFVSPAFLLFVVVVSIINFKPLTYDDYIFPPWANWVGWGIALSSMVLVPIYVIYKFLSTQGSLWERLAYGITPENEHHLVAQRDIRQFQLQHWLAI

[10] = target: Beta-1 adrenergic receptor (Homo sapiens, UniProt P08588); assay type: functional
Chain of Beta-1 adrenergic receptor (P08588 whole entry): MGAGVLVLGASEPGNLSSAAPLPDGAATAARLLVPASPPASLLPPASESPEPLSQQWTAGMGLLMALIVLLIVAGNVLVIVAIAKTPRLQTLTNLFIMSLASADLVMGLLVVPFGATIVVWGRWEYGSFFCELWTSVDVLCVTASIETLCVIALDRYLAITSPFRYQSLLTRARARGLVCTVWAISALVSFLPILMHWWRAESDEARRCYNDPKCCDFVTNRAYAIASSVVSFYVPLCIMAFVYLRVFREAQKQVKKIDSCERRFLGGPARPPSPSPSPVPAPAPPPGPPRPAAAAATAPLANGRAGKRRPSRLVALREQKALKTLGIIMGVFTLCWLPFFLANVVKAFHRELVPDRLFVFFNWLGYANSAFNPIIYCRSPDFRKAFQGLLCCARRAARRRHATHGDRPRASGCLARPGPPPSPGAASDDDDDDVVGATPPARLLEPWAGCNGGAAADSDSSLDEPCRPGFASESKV

Progesterone receptor = target: T4, Progesterone receptor (Homo sapiens, UniProt P06401); assay type: functional
T4 sequence (P06401 whole entry): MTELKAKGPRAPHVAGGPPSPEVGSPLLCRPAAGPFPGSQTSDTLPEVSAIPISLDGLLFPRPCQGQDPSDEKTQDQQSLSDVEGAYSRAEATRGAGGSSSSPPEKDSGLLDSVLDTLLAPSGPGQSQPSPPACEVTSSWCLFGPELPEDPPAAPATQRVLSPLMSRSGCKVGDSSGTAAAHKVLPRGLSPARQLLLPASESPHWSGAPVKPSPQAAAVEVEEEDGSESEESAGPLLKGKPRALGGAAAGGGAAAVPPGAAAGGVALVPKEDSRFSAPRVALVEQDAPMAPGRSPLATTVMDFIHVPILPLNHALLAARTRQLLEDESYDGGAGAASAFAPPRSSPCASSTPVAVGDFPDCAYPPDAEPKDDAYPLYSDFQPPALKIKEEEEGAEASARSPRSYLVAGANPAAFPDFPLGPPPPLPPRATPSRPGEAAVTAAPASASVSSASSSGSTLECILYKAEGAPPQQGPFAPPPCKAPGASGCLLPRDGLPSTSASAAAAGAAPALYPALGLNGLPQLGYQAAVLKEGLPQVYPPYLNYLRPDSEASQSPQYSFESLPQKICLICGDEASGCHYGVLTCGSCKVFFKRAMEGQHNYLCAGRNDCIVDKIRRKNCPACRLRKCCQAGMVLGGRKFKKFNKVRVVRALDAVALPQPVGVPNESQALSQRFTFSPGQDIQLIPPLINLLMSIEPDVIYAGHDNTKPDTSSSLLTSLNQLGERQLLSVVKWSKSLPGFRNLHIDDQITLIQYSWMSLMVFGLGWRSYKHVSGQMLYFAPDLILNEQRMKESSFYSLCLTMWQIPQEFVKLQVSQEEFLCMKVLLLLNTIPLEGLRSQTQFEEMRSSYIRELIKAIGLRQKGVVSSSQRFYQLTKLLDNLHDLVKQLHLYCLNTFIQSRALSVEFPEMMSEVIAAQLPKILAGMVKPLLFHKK

Adenosine receptor A2a = Adenosine receptor A2a (Homo sapiens, UniProt P29274)
Chain of Adenosine receptor A2a (P29274 whole entry): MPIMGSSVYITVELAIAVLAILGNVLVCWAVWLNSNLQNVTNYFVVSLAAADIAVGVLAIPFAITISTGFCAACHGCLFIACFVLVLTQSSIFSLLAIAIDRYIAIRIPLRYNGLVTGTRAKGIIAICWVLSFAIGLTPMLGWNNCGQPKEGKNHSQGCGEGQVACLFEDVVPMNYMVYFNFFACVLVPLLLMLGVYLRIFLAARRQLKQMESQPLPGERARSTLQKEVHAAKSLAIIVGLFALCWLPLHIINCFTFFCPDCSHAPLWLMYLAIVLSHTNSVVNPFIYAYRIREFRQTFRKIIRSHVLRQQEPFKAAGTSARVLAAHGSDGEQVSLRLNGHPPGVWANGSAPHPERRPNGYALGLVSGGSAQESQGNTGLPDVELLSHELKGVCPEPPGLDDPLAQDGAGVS
Also: assay procedure not described here.

| SMILES | AC50 [1] [µM] | AC50 [2] [µM] | other results |
| --- | --- | --- | --- |
| CC[C@@H]1C[C@]1(NC(=O)[C@@H]1C[C@@H]2CN1C(=O)[C@H](C(C)(C)C)NC(=O)OCC(C)(C)CCCCc1cccc3c1CN(C3)C(=O)O2)C(=O)NS(=O)(=O)C1CC1 | 23.4 | > 3 | – |
| CC(=O)NCCCCCC(=O)O [ACEXAMIC ACID] | > 30 | > 30 | – |
| C=C(C)CNc1ccc(C(C)C(=O)O)cc1 (stereo not given) [ALMINOPROFEN] | > 30 | > 30 | – |
| CC(C)NC(=N)NC(=N)Nc1ccc(Cl)c(Cl)c1 [CHLORPROGUANIL] | – | – | AC50 [3]: > 30 µM; AC50 [4]: 8.9 µM; AC50 [5]: > 30 µM; AC50 [6]: > 30 µM; AC50 [7]: > 30 µM; AC50 [8]: 12 µM |
| Cc1cc(C2CCCCC2)n(O)c(=O)c1 [CICLOPIROX] | – | – | AC50 (Melanocortin receptor 3): > 30 µM; AC50 [4]: > 30 µM; AC50 [9]: > 30 µM; AC50 [10]: > 30 µM; AC50 (Progesterone receptor): > 30 µM; AC50 (Adenosine receptor A2a): > 30 µM; AC50 [7]: > 30 µM; AC50 [8]: > 30 µM |
| C[C@H]1O[C@@H](O[C@H]2CC[C@@]3(C)[C@H](CC[C@@H]4[C@@H]3C[C@@H](O)[C@]3(C)[C@@H](C5=CC(=O)OC5)CC[C@]43O)C2)C[C@H](O)[C@@H]1O[C@H]1C[C@H](O)[C@H](O[C@H]2C[C@H](O)[C@H](O[C@@H]3O[C@H](CO)[C@@H](O)[C@H](O)[C@H]3O)[C@@H](C)O2)[C@@H](C)O1 [DESLANOSIDE] | > 30 | > 30 | – |
| CC[C@H]1OC(=O)[C@H](C)[C@@H](O[C@H]2C[C@@](C)(OC)[C@@H](O)[C@H](C)O2)[C@H](C)[C@@H](O[C@@H]2O[C@H](C)C[C@H](N(C)C)[C@H]2O)[C@](C)(O)C[C@@H](C)[C@@H]2N[C@@H](COCCOC)O[C@H]([C@H]2C)[C@]1(C)O [DIRITHROMYCIN] | > 30 | > 30 | – |
| CCCCc1oc2ccc(NS(C)(=O)=O)cc2c1C(=O)c1ccc(OCCCN(CCCC)CCCC)cc1 [DRONEDARONE] | > 30 | 7.76 | – |
| CC(C)C(=O)Oc1ccc(CO)cc1[C@H](CCN(C(C)C)C(C)C)c1ccccc1 [FESOTERODINE] | > 30 | 0.354 | – |
| C[N+](C)(CCCCCC[N+](C)(C)C1c2ccccc2-c2ccccc21)C1c2ccccc2-c2ccccc21 [HEXAFLUORENIUM] | > 30 | 7.41 | – |
| CCCCC(CC)CN1CN(CC(CC)CCCC)CC(C)(N)C1 (stereo not given) [HEXETIDINE] | > 30 | 9.85 | – |
| COc1c2occc2c(OC)c2c(=O)cc(C)oc12 [KHELLIN] | > 30 | > 30 | – |
| CC(C)[C@@H]1CC[C@@H](C)C[C@H]1O [LEVOMENTHOL] | > 30 | > 30 | – |
| COC(=O)[C@@H](N)Cc1ccc(O)c(O)c1 [MELEVODOPA] | > 30 | 22.1 | – |
| C=N[C@@H](C(=O)N[C@@H]1C(=O)N2[C@@H]1SC(C)(C)[C@@H]2C(=O)O)c1ccccc1 [METAMPICILLIN] | > 30 | > 30 | – |
| O=C(NNCS(=O)(=O)O)c1ccncc1 [METHANIAZIDE] | > 30 | > 30 | – |
| Cc1cc(=O)[nH]c(=S)[nH]1 [METHYLTHIOURACIL] | > 30 | > 30 | – |
| CCNC(=O)/C=C(C)/C=C/C=C(C)/C=C/c1c(C)cc(OC)c(C)c1C [MOTRETINIDE] | > 30 | 16.6 | – |
| CCCCC1C(=O)N(c2ccccc2)N(c2ccc(O)cc2)C1=O (stereo not given) [OXYPHENBUTAZONE ANHYDROUS] | > 30 | > 30 | – |
| O=C(O)CN(CCN(CC(=O)O)CC(=O)O)CCN(CC(=O)O)CC(=O)O [PENTETIC ACID] | > 30 | > 30 | – |
| Nc1cccc2c1C(=O)N(C1CCC(=O)NC1=O)C2=O (stereo not given) [POMALIDOMIDE] | > 30 | > 30 | – |
| C[Se]CC[C@H](N)C(=O)O [SELENOMETHIONINE] | > 30 | > 30 | – |
| CC(C)C[C@H](NC(=O)[C@@H](O)[C@H](N)Cc1ccccc1)C(=O)O [UBENIMEX] | – | – | AC50 [3]: > 30 µM; AC50 (Melanocortin receptor 3): > 30 µM; AC50 [4]: > 30 µM; AC50 [9]: > 30 µM; AC50 [10]: > 30 µM; AC50 (Progesterone receptor): > 30 µM; AC50 (Adenosine receptor A2a): > 30 µM; AC50 [5]: > 30 µM; AC50 [6]: > 30 µM; AC50 [7]: > 30 µM; AC50 [8]: > 30 µM |
